According to BindingDB's records for doi:10.1016/j.bioorg.2017.01.015 (Universiti Teknologi MARA (UiTM), 2017):

Molecular target: T1, Beta-glucuronidase (Homo sapiens, UniProt P08236)
T1 sequence (P08236 whole entry): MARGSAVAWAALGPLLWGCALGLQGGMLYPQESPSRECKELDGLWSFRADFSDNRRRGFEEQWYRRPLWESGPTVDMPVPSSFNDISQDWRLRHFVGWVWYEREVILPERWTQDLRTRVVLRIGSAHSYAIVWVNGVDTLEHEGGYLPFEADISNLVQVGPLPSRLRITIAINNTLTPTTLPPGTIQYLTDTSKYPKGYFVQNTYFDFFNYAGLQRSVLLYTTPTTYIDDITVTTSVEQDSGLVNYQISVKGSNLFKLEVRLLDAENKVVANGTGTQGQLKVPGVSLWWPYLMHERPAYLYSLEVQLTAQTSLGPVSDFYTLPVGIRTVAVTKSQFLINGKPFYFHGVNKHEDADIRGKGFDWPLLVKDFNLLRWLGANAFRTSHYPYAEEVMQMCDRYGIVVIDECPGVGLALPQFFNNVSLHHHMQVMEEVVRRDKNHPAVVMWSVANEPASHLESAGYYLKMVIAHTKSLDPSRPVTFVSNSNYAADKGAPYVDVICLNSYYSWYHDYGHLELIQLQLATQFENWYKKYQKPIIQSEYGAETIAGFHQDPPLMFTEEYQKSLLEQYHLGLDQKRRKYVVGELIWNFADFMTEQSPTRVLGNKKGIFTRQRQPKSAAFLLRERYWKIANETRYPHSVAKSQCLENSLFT
Assay: β-Glucuronidase Assay
Description: 250 μL was the volume of total reaction. Reaction mixture containing 5 μL of test compound solution, 185 μL of 0.1 M acetate buffer and 10 μL of enzyme solution were incubated for 30 min at 37 °C. […] To avoid precipitation compound concentration were decreased and the volume of reaction was high (200 μL). Precipitation probability was less thus addition of detergents was not needed.

| Compound | IC50 |
| --- | --- |
| COc1ccccc1-c1nnc(-c2ccc(C(=O)NNS(=O)(=O)c3cccc([N+](=O)[O-])c3)cc2)o1 [N'-(4-(5-(2-methoxyphenyl)-1,3,4-oxadiazol-2-yl)benzoyl)-3-nitrobenzenesulfonohydrazide (12)] | 89.3 µM |
| COc1ccccc1-c1nnc(-c2ccc(C(=O)NNS(=O)(=O)c3cccc(Br)c3)cc2)o1 [3-Bromo-N'-(4-(5-(2-methoxyphenyl)-1,3,4-oxadiazol-2yl)benzoyl)benzenesulfonohydrazide (9)] | 58.2 µM |
| COc1ccccc1-c1nnc(-c2ccc(C(=O)NNS(=O)(=O)c3ccccc3[N+](=O)[O-])cc2)o1 [N'-(4-(5-(2-methoxyphenyl)-1,3,4-oxadiazol-2-yl)benzoyl)-2-nitrobenzenesulfonohydrazide (10)] | 44.7 µM |
| COc1ccccc1-c1nnc(-c2ccc(C(=O)NNS(=O)(=O)c3ccc(C)cc3)cc2)o1 [4-methyl-N'-(4-(5-(2-methoxyphenyl)-1,3,4-oxadiazol-2-yl)benzoyl)-4-methylbenzenesulfonohydrazide (15)] | 98.1 µM |

Now those with a lower IC50, led by results:

| IC50 | Compound |
| --- | --- |
| 38.5 µM | COc1ccccc1-c1nnc(-c2ccc(C(=O)NNS(=O)(=O)c3ccccc3Br)cc2)o1 [2-Bromo-N'-(4-(5-(2-methoxyphenyl)-1,3,4-oxadiazol-2yl)benzoyl)benzenesulfonohydrazide (7)] |
| 10.3 µM | COc1ccccc1-c1nnc(-c2ccc(C(=O)NNS(=O)(=O)c3ccccc3F)cc2)o1 [2-Fluoro-N'-(4-(5-(2-methoxyphenyl)-1,3,4-oxadiazol-2yl)benzoyl)benzenesulfonohydrazide (4)] |
| 24.3 µM | COc1ccccc1-c1nnc(-c2ccc(C(=O)NNS(=O)(=O)c3ccccc3C)cc2)o1 [N'-(4-(5-(2-methoxyphenyl)-1,3,4-oxadiazol-2-yl)benzoyl)-2-methylbenzenesulfonohydrazide (14)] |
| 28.1 µM | COc1ccccc1-c1nnc(-c2ccc(C(=O)NNS(=O)(=O)c3cccc(F)c3)cc2)o1 [3-Fluoro-N'-(4-(5-(2-methoxyphenyl)-1,3,4-oxadiazol-2yl)benzoyl)benzenesulfonohydrazide (5)] |
